According to ChEMBL document CHEMBL3272002, “Central nervous system depressants. 13. s-Triazolo-1,5-benzodiazepin-5-ones” (1976):
Calls of active or inactive are those of the source. The rule behind the calls is not given here.

Legend:
Mus musculus [1] = test: Anticonvulsant activity in CF-1 mouse assessed as reduction of pentylenetetrazole-induced response at 100 mg/kg, ip; format: functional, organism-based; set-up: dose 100 mg/kg
Mus musculus [2] = test: Inhibition of nicotine-induced response in CF-1 mouse at 100 mg/kg, ip; format: functional, organism-based; set-up: dose 100 mg/kg
Mus musculus [3] = test: Reduction in hypoxic stress in CF-1 mouse at 100 mg/kg, ip; format: functional, organism-based; set-up: dose 100 mg/kg
Mus musculus [4] = test: Anticonvulsant activity in CF-1 mouse assessed as reduction of strychnine-induced response at 100 mg/kg, ip; format: functional, organism-based; set-up: dose 100 mg/kg
Mus musculus [5] = test: Anticonvulsant activity in ip dosed CF-1 mouse assessed as reduction of pentylenetetrazole-induced response; format: functional; details: CF-1, ip
Mus musculus [6] = test: Anticonvulsant activity in ip dosed CF-1 mouse assessed as reduction of strychnine-induced response; format: functional; details: CF-1, ip
Mus musculus [7] = test: Inhibition of nicotine-induced response in ip dosed CF-1 mouse; format: functional; details: CF-1, ip
Mus musculus [8] = test: Reduction in hypoxic stress in ip dosed CF-1 mouse; format: functional; details: CF-1, ip

Row | Structure (SMILES) | Activity (Mus musculus [1]) | inhibition (Mus musculus [2]) | Activity (Mus musculus [3]) | Activity (Mus musculus [4]) | ED50 (Mus musculus [5]) [mg/kg] | ED50 (Mus musculus [6]) [mg/kg] | ED50 (Mus musculus [7]) [mg/kg] | ED50 (Mus musculus [8]) [mg/kg]
1 | O=C1Cc2nnc(CCl)n2-c2ccc(Cl)cc2N1c1ccccc1 | inactive | inactive | inactive | inactive | – | – | – | –
2 | Cc1nnc2n1-c1ccc(Cl)cc1N(c1ccccc1)C(=O)C2 | – | – | – | – | 7 | 28 | 5 | 60
3 | CNC1=Nc2ccc(Cl)cc2C(c2ccccc2)=[N+]([O-])C1 [CHLORDIAZEPOXIDE] | – | – | – | – | 2.6 | 13 | 1 | 10.5
4 | CN(C)Cc1nnc2n1-c1ccc(Cl)cc1N(c1ccccc1)C(=O)C2 | – | – | – | – | 25 | – | 89 | –
